Source: PubChem BioAssay AID1159558 (GlaxoSmithKline (GSK), 2015)
Active and inactive are the calls of the source.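 Rule for the calls: active = IC50 against T. cruzi CYP51 below a set limit; inactive = the rest.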

Target: Sterol 14-alpha demethylase (Trypanosoma cruzi (strain CL Brener)) (UniProt Q7Z1V1)
Assay: T. cruzi sterol 14-alpha demethylase inhibition – biochemical, recombinant enzyme, mechanism study for T. cruzi antiparasitic project, dose response (AID 1159558);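 note: enzyme in bacterial membranes with Anopheles gambiae CYP reductase and cytochrome b5 partners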
Details: recombinant T. cruzi CYP51, BOMCC fluorescence

Sterol 14-alpha demethylase (Trypanosoma cruzi (strain CL Brener)), sequence (Q7Z1V1 whole entry, looked up): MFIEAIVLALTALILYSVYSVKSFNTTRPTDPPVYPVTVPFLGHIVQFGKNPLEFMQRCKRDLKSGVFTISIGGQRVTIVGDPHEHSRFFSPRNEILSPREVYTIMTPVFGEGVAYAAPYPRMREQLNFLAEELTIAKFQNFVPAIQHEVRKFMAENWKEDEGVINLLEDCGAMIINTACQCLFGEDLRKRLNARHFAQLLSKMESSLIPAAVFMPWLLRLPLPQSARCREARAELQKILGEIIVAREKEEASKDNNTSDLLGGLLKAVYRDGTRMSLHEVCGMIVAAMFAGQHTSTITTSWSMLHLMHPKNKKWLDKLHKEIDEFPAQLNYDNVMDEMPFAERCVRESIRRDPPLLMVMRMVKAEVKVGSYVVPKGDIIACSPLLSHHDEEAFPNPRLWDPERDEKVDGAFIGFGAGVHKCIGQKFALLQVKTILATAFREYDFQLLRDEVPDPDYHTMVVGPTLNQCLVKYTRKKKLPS

## O=C(NCc1ccc(Cl)cc1)C1CN(C(=O)c2ccc(F)cc2)CCS1 (stereo unspecified)
  IC50: 13 µM

## N#Cc1cccc(Cc2cc(Nc3cc(C4CC4)[nH]n3)nc(N3CC[C@H]3C(N)=O)n2)c1
  IC50: 50 µM

## O=[N+]([O-])c1cccc(Nc2cncc(-c3ccccc3CO)c2)c1
  IC50: 3.2 µM

## O=C(CN(c1cccc(C(F)(F)F)c1)S(=O)(=O)c1ccc(Cl)cc1)NCc1ccc(F)c(F)c1
  IC50: 0.16 µM

## O=C(c1cccc(Cl)c1Cl)N1CCn2c1nc(-c1ccncc1)cc2=O
  IC50: 0.063 µM

## OC1CCC(Nc2nccc(-c3sc(C4CCOCC4)nc3-c3ccc(F)c(F)c3)n2)CC1 (stereo unspecified)
  IC50: > 100 µM (inactive)

## CNC(=O)C1Cc2ccccc2N1C(=O)COc1cccc(OC)c1 (stereo unspecified)
  IC50: 100 µM

## CC(c1ccccn1)N(C)Cc1nc2ccccc2n1C(C)C (stereo unspecified)
  IC50: 32 µM

## COc1ccc(Cl)cc1CC(=O)Nc1n[nH]c(-c2ccccn2)n1
  IC50: > 100 µM (inactive)

## Cn1cc(CN2CCN(c3ccc4c(c3)CCN(C(=O)[C@H]3C[C@@H]3c3ccccc3)CC4)CC2)cn1
  IC50: 16 µM

## CCN(CC)S(=O)(=O)c1ccc(C(=O)Nc2cc(C)nn2-c2nc(C)c(C)c(=O)[nH]2)cc1
  IC50: > 100 µM (inactive)

## COc1ccc2nccc(NC(=O)C3(OC)CCN(CC(O)c4ccc5c(c4)OCCO5)CC3)c2n1 (stereo unspecified)
  IC50: 1 µM

## CC(=O)Nc1ccc(-c2csc(NC(=O)c3ccc([N+](=O)[O-])s3)n2)cc1
  IC50: 6.3 µM

## COc1ccc(Oc2ccc(C(C)N(C)c3ncc4c(N)nc(N)nc4n3)cc2)cc1 (stereo unspecified)
  IC50: 1.6 µM

## CCOc1ccc(Nc2ccc(S(=O)(=O)N3CCN(C)CC3)cc2[N+](=O)[O-])cc1OCC
  IC50: 32 µM

## CS(=O)(=O)c1ccc(Nc2nccc(-c3cnn4ncccc34)n2)cc1
  IC50: 16 µM

## N#Cc1ccccc1S(=O)(=O)N1CCN(C(=O)CNC(=O)c2ccc3c(c2)OCO3)CC1
  IC50: 79 µM

## O=C(CC1(O)C(=O)N(Cc2cccs2)c2ccc(Br)cc21)c1cccnc1 (stereo unspecified)
  IC50: 13 µM

## CN(C)S(=O)(=O)c1ccc(-c2cnc(N)c(-c3nc4ccc(F)cc4[nH]3)c2)cc1
  IC50: 40 µM

## Cc1ccccc1NS(=O)(=O)c1ccc2[nH]cc(C(=O)NC3CCCCC3)c(=O)c2c1
  IC50: 10 µM

## CC(c1ccc2c(c1)CCCC2)N(C)c1ncc2c(N)nc(N)nc2n1 (stereo unspecified)
  IC50: 25 µM

## COc1ccc(Nc2nc(-c3ccccn3)cs2)c(OC)c1
  IC50: 20 µM

## CN(Cc1nc2ccc(C(=O)NCC3CCCCC3)cc2[nH]1)C1CCCc2cccnc21 (stereo unspecified)
  IC50: 40 µM

## Cc1cc2cc(CNc3ccc4c(c3)OCO4)c(=O)n(CCO)c2cc1C
  IC50: 10 µM

## COc1cc2c(cc1OC)[C@H]1[C@@H](C)c3ccc(OC)c(OC)c3CN1CC2
  IC50: 79 µM

## COc1ccc2ncc(=O)n(CCN3CC[C@H](NCc4ncc(Cl)c5[nH]ncc45)[C@H](O)C3)c2n1
  IC50: > 100 µM (inactive)

## CCN(CC)c1ccc(S(=O)(=O)N(CC)CC)c2nonc12
  IC50: 25 µM

## CCc1cccc(-n2nc(OCC(=O)NC3CCCC3)c3cccnc32)c1
  IC50: > 100 µM (inactive)

## NC(=O)c1ncc(N[C@@H]2CCCNC2)nc1Nc1cccc(Cl)c1
  IC50: > 100 µM (inactive)

## CC(CCc1ccccc1)NC(=O)CN(Cc1ccccn1)Cc1ccccn1 (stereo unspecified)
  IC50: 63 µM

## O=C(NCCc1ccn(-c2ccccc2)n1)C1CCCCC1
  IC50: 100 µM

## O=C(NCCc1cccnc1)c1csc(-c2ccccc2)n1
  IC50: 0.063 µM

## Cc1ccc2ccc(C(Nc3ccccn3)c3cccnc3)c(O)c2n1 (stereo unspecified)
  IC50: 0.05 µM

## Nc1cc(-c2ccc3ncnc(N4CCOCC4)c3c2)cnc1N
  IC50: 79 µM

## O=C(NCCc1csc(-c2ccc(F)cc2)n1)c1ccco1
  IC50: > 100 µM (inactive)

## CC1CN(Cc2ccc(C#N)cc2)CCN1c1ccc(NC(=O)c2ccccc2F)cc1 (stereo unspecified)
  IC50: 32 µM

## CNC(=O)Oc1ccc(C(=O)NCc2ccccc2)cc1OC(=O)NC
  IC50: > 100 µM (inactive)

## CNc1cncc(C2CCCN2C(=O)Cc2coc3cc(C)ccc23)n1 (stereo unspecified)
  IC50: 0.025 µM

## Cc1ccc(NC(=O)C(C)n2nc([N+](=O)[O-])c(Br)c2C)cc1Cl (stereo unspecified)
  IC50: > 100 µM (inactive)

## CC(=O)Nc1ccc(CN2CCC(N3CC(c4ccccc4)(c4ccccc4)OCC3=O)CC2)cc1
  IC50: > 100 µM (inactive)

## CCN(CC)c1ncc(C(=O)c2ccc([N+](=O)[O-])o2)s1
  IC50: 40 µM
